The supplement of paper PMC13380429

Tests used:
Settings in all cases: 72 h
Caco-2 [1] = assay: cell viability relative to DMSO; higher = less toxic
Calu-3 [2] = assay: as above
HepG2 [3] = assay: as above
U2OS [4] = assay: as above
Vero E6 [5] = assay: as above
Calu-3 [6] = assay: relative viability EC50 (midpoint between 100% and the lowest measured viability); higher = less toxic
HepG2 [7] = assay: as above
U2OS [8] = assay: as above
Vero E6 [9] = assay: as above
Caco-2 [10] = assay: drug sensitivity score (DSS) for viability; higher = more toxic; extreme values may be limits of the assay
Calu-3 [11] = assay: as above
HepG2 [12] = assay: as above
U2OS [13] = assay: as above
Vero E6 [14] = assay: as above
Caco-2 [15] = assay: relative viability EC50 (midpoint between 100% and the lowest measured viability); higher = less toxic

SMILES	cell viability (Caco-2 [1]; 1 nM)	cell viability (Caco-2 [1]; 10 nM)	cell viability (Caco-2 [1]; 100 nM)	cell viability (Caco-2 [1]; 1000 nM)	cell viability (Caco-2 [1]; 10000 nM)	cell viability (Calu-3 [2]; 1 nM)	cell viability (Calu-3 [2]; 10 nM)	cell viability (Calu-3 [2]; 100 nM)	cell viability (Calu-3 [2]; 1000 nM)	cell viability (Calu-3 [2]; 10000 nM)	cell viability (HepG2 [3]; 1 nM)	cell viability (HepG2 [3]; 10 nM)	cell viability (HepG2 [3]; 100 nM)	cell viability (HepG2 [3]; 1000 nM)	cell viability (HepG2 [3]; 10000 nM)	cell viability (U2OS [4]; 1 nM)	cell viability (U2OS [4]; 10 nM)	cell viability (U2OS [4]; 100 nM)	cell viability (U2OS [4]; 1000 nM)	cell viability (U2OS [4]; 10000 nM)	cell viability (Vero E6 [5]; 1 nM)	cell viability (Vero E6 [5]; 10 nM)	cell viability (Vero E6 [5]; 100 nM)	cell viability (Vero E6 [5]; 1000 nM)	cell viability (Vero E6 [5]; 10000 nM)	relative viability EC50 (Calu-3 [6])	relative viability EC50 (HepG2 [7])	relative viability EC50 (U2OS [8])	relative viability EC50 (Vero E6 [9])	drug sensitivity score (Caco-2 [10])	drug sensitivity score (Calu-3 [11])	drug sensitivity score (HepG2 [12])	drug sensitivity score (U2OS [13])	drug sensitivity score (Vero E6 [14])	relative viability EC50 (Caco-2 [15])
O=C(c1ccc(F)c(F)c1Nc1ccc(I)cc1F)N1CC(O)([C@@H]2CCCCN2)C1 [cobimetinib]	89.5%	82.8%	84.8%	69.1%	63.1%	93.2%	86.6%	81.4%	50.1%	32.7%	94.3%	86.7%	32.8%	24.5%	17.1%	96.5%	94.5%	94.3%	75.8%	23.6%	90.2%	86.1%	72.9%	50.2%	45.7%	0.238 µM	0.0341 µM	1.43 µM	0.0591 µM	8.3	11.9	24.5	7.4	13	–
CN1CCN(c2ccc(C(=O)Nc3n[nH]c4ccc(Cc5cc(F)cc(F)c5)cc34)c(NC3CCOCC3)c2)CC1 [entrectinib]	98.7%	97%	100%	81.2%	5.3%	96.7%	95.8%	98.5%	76.9%	1.7%	104%	100%	102%	71.9%	0.1%	–	–	–	–	–	98.5%	101%	99.4%	80.5%	0.3%	1.6 µM	1.45 µM	–	1.76 µM	8.3	9	9.7	–	8.7	1.74 µM
NC(=O)NCCN1CCN(c2cccc(C(F)(F)F)c2)CC1 [fluprazine]	107%	86.5%	85.3%	96.8%	72.3%	105%	97.6%	101%	91.7%	99.5%	93.3%	112%	110%	97.7%	109%	102%	103%	94.3%	101%	99.9%	103%	99.5%	110%	110%	104%	> 10 µM	> 10 µM	> 10 µM	> 10 µM	2	0	0	0	0	–
O=C1OCCN1/N=C/c1ccc([N+](=O)[O-])o1 [furazolidone]	101%	90.2%	95.6%	93.6%	86.1%	111%	97.6%	100%	101%	110%	99.3%	104%	102%	111%	70.5%	101%	93.2%	97.1%	96.6%	96.5%	106%	97.8%	105%	98.2%	97.4%	> 10 µM	–	> 10 µM	> 10 µM	0.1	0	0.8	0	0	> 10 µM
O[C@H]1[C@H](O)[C@@H](O)[C@H](O)[C@@H](O)[C@H]1O [inositol]	95.8%	111%	91%	105%	69.8%	112%	94.6%	104%	96.1%	100%	123%	102%	105%	93.3%	98.8%	106%	104%	96.7%	103%	101%	110%	101%	98.1%	99.4%	99.5%	> 10 µM	> 10 µM	> 10 µM	> 10 µM	1	0	0	0	0	–
Cc1ccc(C(=O)N(CCCN)[C@@H](c2nc3cc(Cl)ccc3c(=O)n2Cc2ccccc2)C(C)C)cc1 [ispinesib]	93.7%	81.5%	68.8%	64%	63.1%	97.3%	88.5%	90.8%	90%	5.4%	98.7%	55.8%	38.7%	40%	18.8%	104%	92.1%	47.6%	43.2%	31.3%	103%	94%	42.4%	40.8%	38.1%	2.29 µM	0.0173 µM	0.0446 µM	0.029 µM	12.1	6.9	25.4	19.4	19.5	–
Cc1cccc(C)c1NC(=O)CN1CCN(CCCC(c2ccc(F)cc2)c2ccc(F)cc2)CC1 [lidoflazine]	83.7%	99.5%	84.9%	105%	68.2%	106%	113%	112%	102%	88.4%	99.5%	109%	108%	96.2%	80.9%	105%	103%	101%	107%	92.7%	117%	106%	102%	98.2%	87.4%	> 10 µM	> 10 µM	> 10 µM	> 10 µM	1.1	0	1	0	0.2	–
